Experimental findings from patent publication US12310944B2 (priority 2019, dated 2025) are described below.

SMILES strings stand for the structures. Like-named read-outs stand apart in the source and are kept apart here.

The target of series [1] is T1, eqBuChE (BuChE, E.C.3.1.1.8, selected from horse serum) (Equus caballus, UniProt P81908).
T1 construct: BuChE (E.C.3.1.1.8, selected from horse serum); purchased Sigma; host or cells: horse serum
Nature of the series: Cholinesterase inhibitory activity (DTNB/BTC), eqBuChE. In kind it is biochemical. From the text: Determination of Cholinesterase Inhibitory Activity:
Drugs and reagents: Test compounds, AChE (E.C.3.1.1.7, Type VI-S, selected from electric eel), BuChE (E.C.3.1.1.8, selected from horse serum), 5,5′-dithiobis(2-nitrobenzoic acid) (DTNB), acetylthiocholine (ATC) iodide and butyrylthiocholine (BTC) iodide were all purchased from Sigma; the positive control tacrine hydrochloride (9-amino-1,2,3,4-tetrahydroacridine hydrochloride hydrate) was purchased from BioTrend.
(§1) Instrument: THERMO Varioskan Flash full-wavelength multifunctional microplate reader.
(1) Formulation of buffer: 13.6 g of potassium dihydrogen phosphate was dissolved in 1 L of water, and pH was adjusted with potassium hydroxide to reach pH=8±0.1. The solution was stored at 4° C. for later use.
(2) Formulation of 0.01 M DTNB solution: 0.396 g of DTNB and 0.15 g of sodium bicarbonate were dissolved in 100 mL of water to prepare a 0.01 M DTNB solution, which was stored at −30° C. for later use.
(3) Formulation of 0.075 M ATC and BTC solutions: 0.217 g of ATC was dissolved in 10 mL of water to prepare a 0.075 M ATC solution, which was stored at −30° C. for later use; 0.237 g of BTC was dissolved in 10 mL of water to prepare a 0.075 M BTC solution, which was stored at −30° C. for later use.
(4) Formulation of AChE and BuChE solutions: 5,000 units of AChE were dissolved in 1 mL of 1% gel solution, and then diluted to 100 mL with water to prepare a AChE solution with a concentration of 5 units/mL, which was stored at −30° C. for later use; 5,000 units of BuChE were dissolved in 1 mL of 1% gel solution, and then diluted to 100 mL with water to prepare a BuChE solution with a concentration of 5 units/mL, which was stored at −30° C. for later use.
(5) Formulation of test substance solution: The test compound was dissolved in ethanol to obtain a solution with a concentration of 10^−3 M (ethanol would not affect the test results), and then diluted with water to prepare solutions with concentrations of […], 10^−5, 10^−6, 10^−7, 10^−8, 10^−9, and 10^−10 M, respectively.
Before the start of the experiment, all the solutions as used were warmed to room temperature, and the AChE and BuChE solutions were diluted 1-fold with water to prepare an enzyme solution with a concentration of 2.5 units/mL. The background UV absorbance was measured with a blank buffer (3 mL) as a subtraction value. Firstly, 100 μL of test compound solution, 100 μL of DTNB solution, and 100 μL of enzyme solution were added to 3 mL of buffer. After adding 20 μL of ATC or BTC solution to trigger the reaction, the time was recorded immediately and the test solution was mixted quickly and uniformly at the same time. After 2 minutes, the UV absorbance was measured at a wavelength of […]. The blank control group was measured with an equal volume of water instead of the test substance solution. All tests were performed three times in parallel. The UV absorption value of the blank control group was taken as 100%, the absorbance (OD value) of the test compound at each concentration was recorded, and GraphPad Prism™ (GraphPad Software, San Diego, CA, USA) software was used to analyze the results in a non-linear regression analysis model to calculate the corresponding IC50 values, as shown in Table 1.

The next series addresses hBuChE (Homo sapiens, UniProt P06276). In words: Cholinesterase inhibitory activity (DTNB/BTC), hBuChE. The following applies: mean ± SEM. The class given is biochemical.
The test system of another series is PC-12 neural cell line. In words: Toxicity test in PC-12 nerve cell (MTT). In kind it is cell-based. The following applies: PC-12 cells; for SR(%) cell survival rate, 20 μM: 20 μM compound for 24 h; for SR(%) cell survival rate, 50 μM: 50 μM compound for 24 h. How it is done: Toxicity Test in PC-12 Nerve Cell:
Drugs and reagents: Test compounds, DMEM medium (01-050-1A) purchased from Biological Industries, FBS fetal bovine serum (04-001-1A) purchased from Biological Industries, MTT thiazolyl blue reagent (KGT525500) purchased from KeyGEN BioTECH.
as §1
About 3×10^3 PC-12 cells were evenly mixed in 0.1 mL of DMEM medium containing 10% FBS, and plated on a 96-well bottom plate, and incubated overnight at 37° C. in an environment containing 5% CO2. The 20 μM and 50 μM compounds diluted in 0.1 mL of DMEM medium were treated on the cells for 24 hours. Then MTT reagent was added to the well plate, and the plate was incubated at 37° C. for 2 to 4 hours. The color reaction was measured at 492 nm using a spectrophotometer (Thermo, multiskan FC).

Setting [2] is: read-out: IC50 (nM) ± SEM eqBuChE.
Setting [3] is: eqBuChE, mean ± SEM, three parallel tests.

T1 sequence (P81908 whole entry): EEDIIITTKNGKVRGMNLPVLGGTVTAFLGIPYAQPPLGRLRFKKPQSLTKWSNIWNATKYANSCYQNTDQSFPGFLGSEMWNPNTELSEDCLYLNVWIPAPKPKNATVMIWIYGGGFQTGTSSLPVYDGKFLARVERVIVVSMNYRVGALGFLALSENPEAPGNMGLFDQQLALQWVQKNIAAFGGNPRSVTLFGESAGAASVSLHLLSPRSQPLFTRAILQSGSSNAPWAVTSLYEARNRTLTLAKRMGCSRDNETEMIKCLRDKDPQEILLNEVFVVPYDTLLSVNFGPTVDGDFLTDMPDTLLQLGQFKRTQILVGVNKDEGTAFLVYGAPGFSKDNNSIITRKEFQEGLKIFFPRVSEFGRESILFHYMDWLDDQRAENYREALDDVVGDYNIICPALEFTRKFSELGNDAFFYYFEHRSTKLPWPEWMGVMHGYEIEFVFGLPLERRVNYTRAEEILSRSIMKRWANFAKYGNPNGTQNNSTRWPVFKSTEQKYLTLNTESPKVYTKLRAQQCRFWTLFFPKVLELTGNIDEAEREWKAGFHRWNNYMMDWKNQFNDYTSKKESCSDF

Regarding `CCN(CC)Cc1ccccc1CNC(=O)c1cccc(NC(=O)c2ccc(C(=O)O)cc2)c1` [Compound 13, 4-((3-((2-((diethylamino)methyl)benzyl)carbamoyl)phenyl)carbamoyl)benzoic acid], the IC50 (as a rule, the concentration needed to halve the response being measured) in series [1] (setting [2]) came out at 0.76 ± 0.09 nM. The same compound displayed an IC50 on hBuChE of 3.4 ± 0.31 nM. In addition, in the series on PC-12 neural cell line, the “SR(%) cell survival rate, 20 μM” value is 91.46% and the “SR(%) cell survival rate, 50 μM” value is on record as 75.25%.
For `CCN(CC)Cc1ccccc1CNC(=O)c1cccc(NC(=O)c2cccs2)c1` [Compound 1, N-(3-((2-((diethylamino)methyl)benzyl)carbamoyl)phenyl)thiophene-2-carboxamide], in series [1] (setting [3]), the IC50 is 0.13 ± 0.01 nM. In addition, it took 0.42 ± 0.07 nM to reach half-maximal inhibition on hBuChE (IC50). For the same compound, in the series on PC-12 neural cell line, the “SR(%) cell survival rate, 20 μM” value turned out to be 97.36% and the “SR(%) cell survival rate, 50 μM” value stood at 84.34%.
On to `CN(C)Cc1ccccc1CNC(=O)c1cccc(NC(=O)c2cccs2)c1` [Compound 34, N-(3-((2-((dimethylamino)methyl)benzyl)carbamoyl)phenyl)thiophene-2-carboxamide], for which the IC50 in series [1] (setting [3]) was 0.29 ± 0.05 nM; against hBuChE, 0.75 ± 0.27 nM. The “SR(%) cell survival rate, 20 μM” value with PC-12 neural cell line is given as 96.10%. Moreover, in the series on PC-12 neural cell line, the “SR(%) cell survival rate, 50 μM” value amounted to 94.5%.
In the case of `CCN(CC)Cc1ccccc1CNC(=O)c1cccc(NC(=O)c2ccc(Cl)cc2)c1` [Compound 19, 3-(4-chlorobenzamido)-N-(2-((diethylamino)methyl)benzyl)benzamide], the IC50 in series [1] (setting [2]) is 0.34 ± 0.21 nM. For the same compound, half-maximal inhibition on hBuChE (IC50) was put at 0.83 ± 0.39 nM. Further, in the series with PC-12 neural cell line, the “SR(%) cell survival rate, 20 μM” value came to 90.43% and the “SR(%) cell survival rate, 50 μM” value came out at 79.24%.
As to `CCN(CC)Cc1ccccc1CNC(=O)c1cccc(NC(=O)c2ccc(OC)cc2)c1` [Compound 26], in series [1] (setting [3]), half-maximal inhibition (IC50) was put at 0.55 ± 0.09 nM. The compound also returned an IC50 on hBuChE of 1.04 ± 0.52 nM. Further, in the series on PC-12 neural cell line, the “SR(%) cell survival rate, 20 μM” value came out at 97.20% and the “SR(%) cell survival rate, 50 μM” value was 82.25%.
The corresponding values for `CCN(CC)Cc1ccccc1CNC(=O)c1cccc(NC(=O)c2cccc(F)c2)c1` [Compound 17, N-(2-((diethylamino)methyl)benzyl)-3-(3-fluorobenzamido)benzamide] are 4.55 ± 0.74 nM, 25.2 ± 19.1 nM, 98.40% and 89.75%.
With `CCN(CC)Cc1ccccc1CNC(=O)c1cccc(NC(=O)c2ccc[nH]2)c1` [Compound 5, N-(3-((2-((diethylamino)methyl)benzyl)carbamoyl)phenyl)-pyrrole-2-carboxamide], the IC50 in series [1] (setting [2]) came out at 0.87 ± 0.03 nM. The compound further registered an IC50 on hBuChE of 2.99 ± 0.67 nM. Also, in the series with PC-12 neural cell line, the “SR(%) cell survival rate, 20 μM” value amounted to 97.53% and the “SR(%) cell survival rate, 50 μM” value was determined as 92.47%.
The corresponding values for `CCN(CC)Cc1ccccc1CNC(=O)c1cccc(NC(=O)c2ccc(N)cc2)c1` [Compound 33] are 1.56 ± 0.67 nM, 7.99 ± 2.53 nM, 90.21% and 74.62%.
In the same order, the values of `CCN(CC)Cc1ccccc1CNC(=O)c1cccc(NC(=O)c2ccccn2)c1` [Compound 7, N-(3-((2-((diethylamino)methyl)benzyl)carbamoyl)phenyl)-pyridineamide] are 0.34 ± 0.02 nM, 0.78 ± 0.63 nM, 92.36% and 75.46%.
The corresponding values for `CCN(CC)Cc1ccccc1CNC(=O)c1cccc(NC(=O)c2ccc(C)c(C)c2)c1` [Compound 23, N-(3-((2-((diethylamino)methyl)benzyl)carbamoyl)phenyl)-3,4-dimethylbenzamide] are 0.8 ± 0.24 nM, 1.53 ± 0.55 nM, 85.05% and 80.72%.
With `CCN(CC)Cc1ccccc1CNC(=O)c1cccc(NC(=O)c2ccccc2F)c1` [Compound 18, N-(3-((2-((diethylamino)methyl)benzyl)carbamoyl)phenyl)-2-fluorobenzamide], the IC50 in series [1] (setting [2]) was found to be 3.5 ± 1.1 nM; on hBuChE, 17.4 ± 1.98 nM. Besides, the “SR(%) cell survival rate, 20 μM” value in the series with PC-12 neural cell line is 80.26%. For the same compound, in the series with PC-12 neural cell line, the “SR(%) cell survival rate, 50 μM” value turned out to be 73.56%.
In the same order, the values of `CCN(CC)Cc1ccccc1CNC(=O)c1cccc(NC(=O)c2ccccc2)c1` [Compound 11, 3-benzamido-N-(2-((diethylamino)methyl)benzyl)benzamide] are 0.48 ± 0.07 nM, 0.99 ± 0.18 nM, 96.30% and 83.4%.
In the case of `CCN(CC)Cc1ccccc1CNC(=O)c1cccc(NC(=O)c2cccc(OC)c2)c1` [Compound 27], the IC50 is 4.91 ± 1.35 nM in series [1] (setting [2]) and 12.8 ± 6.01 nM against hBuChE. The “SR(%) cell survival rate, 20 μM” value in the series on PC-12 neural cell line turned out to be 91.23%. Further, the “SR(%) cell survival rate, 50 μM” value in the series on PC-12 neural cell line was found to be 83.60%.
`CCCN(CCC)Cc1ccccc1CNC(=O)c1cccc(NC(=O)c2cccs2)c1` [Compound 35, N-(3-((2-((dipropylamino)methyl)benzyl)carbamoyl)phenyl)thiophene-2-carboxamide] gave an IC50 in series [1] (setting [3]) of 0.45 ± 0.04 nM. The compound further registered an IC50 against hBuChE of 0.89 ± 0.67 nM. In the series with PC-12 neural cell line, the “SR(%) cell survival rate, 20 μM” value is recorded as 92.58% and the “SR(%) cell survival rate, 50 μM” value worked out at 84.86%.
On to `CCN(CC)Cc1ccccc1CNC(=O)c1cccc(NC(=O)c2ccc(C=O)cc2)c1` [Compound 14, N-(2-((diethylamino)methyl)benzyl)-3-(4-formanilide)benzamide], for which the IC50 in series [1] (setting [2]) was determined as 0.89 ± 0.63 nM. The compound also displayed an IC50 against hBuChE of 2.09 ± 0.99 nM. Further, in the series with PC-12 neural cell line, the “SR(%) cell survival rate, 20 μM” value is listed as 86.34% and the “SR(%) cell survival rate, 50 μM” value is listed as 81.34%.
Consider `CCN(CC)Cc1ccccc1CNC(=O)c1cccc(NC(=O)c2ccc(F)cc2)c1` [Compound 15, N-(2-((diethylamino)methyl)benzyl)-3-(4-fluorobenzamido)benzamide], for which 0.15 ± 0.06 nM corresponded to half-maximal inhibition in series [1] (setting [3]) (IC50). This compound also showed an IC50 against hBuChE of 1.44 ± 1.66 nM. Moreover, in the series with PC-12 neural cell line, the “SR(%) cell survival rate, 20 μM” value was found to be 93.57% and the “SR(%) cell survival rate, 50 μM” value came out at 84.35%.
Consider `CCN(CC)Cc1ccccc1CNC(=O)c1cccc(NC(=O)c2ccc(C#N)cc2)c1` [Compound 31, 3-(4-cyanobenzamido)-N-(2-((diethylamino)methyl)benzyl)benzamide], for which, in series [1] (setting [2]), the IC50 came to 15.8 ± 2.84 nM. Further, the IC50 against hBuChE stood at 16.5 ± 15.1 nM. In the series with PC-12 neural cell line, the “SR(%) cell survival rate, 20 μM” value stood at 94.67% and the “SR(%) cell survival rate, 50 μM” value came out at 91.59%.
The corresponding values for `CCN(CC)Cc1ccccc1CNC(=O)c1cccc(NC(=O)c2ccc(C(=O)OC)cc2)c1` [Compound 29, methyl 4-((3-((2-((diethylamino)methyl)benzyl)carbamoyl)phenyl)carbamoyl)benzoate] are 2.48 ± 0.26 nM, 9.06 ± 0.74 nM, 99.42% and 93.32%.
